Where a name gives a salt, the structure may show the parent alone.
Legend:
[1] = water-solubility at 20° C.; format: physicochemical
[2] = tested on: experimental edema induced by carrageen in a rat's paw; assay: experimental edema induced by carrageen in a rat's paw; format: in vivo, rat (Sprague Dawley--Charles River); details: for TI (therapeutic index) LD50 /ED50: LD50 mice oral / ED50 rat paw edema; for ED50: Rattus norvegicus, rat paw carrageen edema, dosed 60 minutes before carrageen, paw volume at 2, 4 and 6 hours
Description: (§1) The LD50 was determined by the Litchfield-Wilcoxon method on mice using progressive oral doses. […] The paw volume is checked 2, 4 and 6 hours after inoculating the carrageen.

[3] = prior art statement; cited from earlier work
[4] = cited from earlier work
[5] = LD50 by the Litchfield-Wilcoxon method on mice, progressive oral doses; details: mouse, in vivo
Description: as §1

C[C@H](C(=O)O)c1ccc2oc(-c3ccc(F)cc3)nc2c1 [Example 2]
water-solubility (in words) ([1]; compared with Example 1): as in Example 1

C[C@H](C(=O)O)c1ccc2oc(-c3ccc(F)cc3)nc2c1 [Flunoxaprofen, (+)2-(4-fluorophenyl)-alpha-methyl-5-benzoxazole acetic acid]
TI (therapeutic index) LD50 /ED50 [2]: 121.18 | ED50 [2]: 5.97 mg/kg | water-solubility [3]: very limited | activity of the dextrorotatory form ([4]; Italian patent No. 1,080,779): particularly active | anti-inflammatory, analgesic and antipyretic activity ([4]; J. Medic. Chem. 1975, vol 18, No. 1, pp 53-58): considerable anti-inflammatory, analgesic and antipyretic activity | LD50 [5]: 724 mg/kg

C[C@H](C(=O)O)c1ccc2oc(-c3ccc(F)cc3)nc2c1 (racemic) [Example 1, salt of (+)2-(4-fluorophenyl)-alpha-methyl-5-benzoxazole acetic acid with DL-lysine]
TI (therapeutic index) LD50 /ED50 ([2]; listed as Salt of flunoxaprofen with DL-lysine): 129.96 | ED50 ([2]; expressed as flunoxaprofen): 5.54 mg/kg | solubility ([1]; water): 1000 mg/mL | LD50 ([5]; expressed as flunoxaprofen): 720 mg/kg

O=C(O)Cc1ccccc1Nc1c(Cl)cccc1Cl [Diclofenac]
ED50 [2]: 10 mg/kg

— patent US5120851A, “Preparation process for making water-soluble lysine salts of (+)2-(4-fluorophenyl)-alpha-methyl-5-benzoxazole acetic acid” (Euroresearch S.r.l., priority 1988, dated 1992)
